Results as given in US7569729B2, “Stable atomoxetine hydrochloride, a process for the preparation thereof, and an analytical control of its stability” (Teva Pharmaceutical Fine Chemicals S.R.L., priority 2005, dated 2009).
Where “and” joins values, the source holds several entries; their conditions need not be identical. Identical values can stand only once. Counter-ions that a name gives are not always drawn.

What was measured:
[1] = Determination of pH of Atomoxetine Hydrochloride samples in aqueous solution; type: physicochemical; settings: for aqueous pH test results: samples of the 40° C. stability test; for aqueous pH test results / pH of 2% (w/V) aqueous solution: Hydrochloride; for pH (2% in H2O): wet samples after filtration from crystallization medium
Method: The present invention provides a method for analyzing Atomoxetine Hydrochloride stability, comprising determining the pH of a sample of Atomoxetine Hydrochloride in aqueous solution. The process comprises dissolving Atomoxetine Hydrochloride in water at a temperature of about 20° C. to about 30° C. to obtain a solution and measuring the pH. Preferably, the dissolution of Atomoxetine Hydrochloride is accelerated by using a sonication. Preferably, the pH is measured with a glass electrode.
A 2 g sample of Atomoxetine Hydrochloride is dissolved in 100 ml of deionized water at temperature between about 20° C. and about 30° C. with sonication if required to obtain a complete solution. The pH is measured with a glass electrode at temperature of between about 20° C. and about 30° C.

[2] = Stability test (40° C., five days), impurities by HPLC; type: physicochemical
Method: At lower temperatures, e.g., 40° C., the stability of Atomoxetine Hydrochloride samples, having a water solution pH test of less than 4 are compromised, while Atomoxetine Hydrochloride samples, having a water solution pH test of greater than 4, are stable.

[3] = Stressed thermal stability test (70° C. for 58 hours), impurities by HPLC; type: physicochemical
From the text: However, the presence of free HCl in Atomoxetine Hydrochloride, which is easily detected by a pH test of a solution of Atomoxetine Hydrochloride in water, results in significant degradation of the Atomoxetine Hydrochloride, as described below.

[4] = Drying wet Atomoxetine Hydrochloride in a vacuum oven at 70° C., impurities by HPLC; type: physicochemical; settings: HPLC results, weight percent
From the text: These experimental results are in agreement with the previously described stability data.

[5] = Stability test (40° C., 75% RH), impurities by HPLC; type: physicochemical
[6] = Determination of pH of Atomoxetine Hydrochloride samples in aqueous solution; type: physicochemical; settings: Example 2, after first water slurry and wash, 200 mg in 10 ml water
[7] = Contact of dry Atomoxetine Hydrochloride with HCl gas flow at room temperature, impurities by HPLC
[8] = End of test time, Hydrochloride
[9] = After drying in vacuum oven at 70° C.
[10] = Before contact with HCl gas flow
[11] = After contact with HCl gas flow, room temperature

| Structure (SMILES) | aqueous pH test results [1] | Impurity (a) (HPLC A %) [2, 8] | Impurity (b) (HPLC A %) [2, 8] | Impurity (c) (HPLC A %) [2, 8] | Impurity (b) (HPLC A %) ([2]; Time zero) | Impurity (a) (HPLC A %) ([2]; Time zero, Hydrochloride) | Impurity (c) (HPLC A %) ([2]; Time zero, Hydrochloride) | pH of 2% (w/V) aqueous solution [1] | Impurity (a) (HPLC A %) [3, 8] | Impurity (b) (HPLC A %) [3, 8] | Impurity (c) (HPLC A %) [3, 8] | Impurity (a) (HPLC A %) ([3]; Time zero) | Impurity (b) (HPLC A %) ([3]; Time zero) | Impurity (c) (HPLC A %) ([3]; Time zero) | other results |
| --- | --- | --- | --- | --- | --- | --- | --- | --- | --- | --- | --- | --- | --- | --- | --- |
| CNCCC(Oc1ccccc1C)c1ccccc1 (stereo not shown) [Sample 9, Atomoxetine Hydrochloride] | 4.8 | not detected | not detected | not detected | not detected | not detected | not detected | – | – | – | – | – | – | – | – |
| CNCCC(Oc1ccccc1C)c1ccccc1 (single isomer, unassigned) [Sample 3, Atomoxetine Hydrochloride] | – | – | – | – | – | – | – | 6.0 | not detected | not detected | not detected | not detected | not detected | not detected | – |
| CNCCC(Oc1ccccc1C)c1ccccc1 (stereo not shown) [Sample 5, Atomoxetine Hydrochloride] | – | – | – | – | – | – | – | – | – | – | – | – | – | – | pH (2% in H2O) [1]: 2.4; Impurity (a) [4, 9]: 0.31%; Impurity (b) [4, 9]: 0.04%; Impurity (c) [4, 9]: 0.12%; Impurity (a) ([4]; Before drying): not detected; Impurity (b) ([4]; Before drying): not detected; Impurity (c) ([4]; Before drying): not detected |
| CNCCC(Oc1ccccc1C)c1ccccc1 (single isomer, unassigned) [Sample 4, Atomoxetine Hydrochloride] | – | – | – | – | – | – | – | 5.9 | not detected | not detected | not detected | not detected | not detected | not detected | – |
| CNCCC(Oc1ccccc1C)c1ccccc1 (stereo not shown) [Sample 11, Atomoxetine Hydrochloride] | – | – | – | – | – | – | – | – | – | – | – | – | – | – | Impurity (a) (HPLC A %) ([5]; 1 month): 0.02 HPLC A %; Impurity (b) (HPLC A %) ([5]; 1 month): 0.006 HPLC A %; Impurity (c) (HPLC A %) ([5]; 1 month): not detected; Impurity (a) (HPLC A %) ([5]; 2 months): 0.02 HPLC A %; Impurity (b) (HPLC A %) ([5]; 2 months): 0.007 HPLC A %; Impurity (c) (HPLC A %) ([5]; 2 months): not detected; Impurity (a) (HPLC A %) ([5]; 3 months): 0.02 HPLC A %; Impurity (b) (HPLC A %) ([5]; 3 months): 0.003 HPLC A %; Impurity (c) (HPLC A %) ([5]; 3 months): not detected; Impurity (a) (HPLC A %) ([5]; 6 month): 0.01 HPLC A %; Impurity (b) (HPLC A %) ([5]; 6 month): not detected; Impurity (c) (HPLC A %) ([5]; 6 month): not detected; Impurity (a) (HPLC A %) ([5]; Time zero): 0.01 HPLC A %; Impurity (b) (HPLC A %) ([5]; Time zero): not detected; Impurity (c) (HPLC A %) ([5]; Time zero): not detected |
| CNCCC(Oc1ccccc1C)c1ccccc1 (stereo not shown) [Sample 7, Atomoxetine Hydrochloride] | 2.4 | 0.633% HPLC A % | 0.0482% HPLC A % | 0.689% HPLC A % | not detected | 0.014% HPLC A % | 0.018% HPLC A % | – | – | – | – | – | – | – | – |
| CNCC[C@@H](Oc1ccccc1C)c1ccccc1 [Atomoxetine Hydrochloride, (R)(−)-n-methyl-3-(2-methylphenoxy)-3-phenylpropylamine] | – | – | – | – | – | – | – | – | – | – | – | – | – | – | pH ([1]; Example 1, wet solids of two separate preparations, 2 g in 100 ml water): 2.39 and 2.40; pH ([1]; Example 2, after second water slurry and wash, wet, 2 g in 100 ml water): 5.9; pH ([1]; Example 3, after acetone washing and drying, about 2 percent w/V in water): 4.6; pH [6]: 4.4 |
| CNCCC(Oc1ccccc1C)c1ccccc1 (stereo not shown) [Sample 10, Atomoxetine Hydrochloride] | 6.1 | not detected | not detected | not detected | not detected | not detected | not detected | – | – | – | – | – | – | – | – |
| CNCCC(Oc1ccccc1C)c1ccccc1 (single isomer, unassigned) [Sample 1, Atomoxetine Hydrochloride] | – | – | – | – | – | – | – | 2.4 | 10.5% HPLC A % | 14.2% HPLC A % | 26.2% HPLC A % | not detected | not detected | not detected | – |
| CNCCC(Oc1ccccc1C)c1ccccc1 (stereo not shown) [Sample 12, Atomoxetine Hydrochloride] | – | – | – | – | – | – | – | – | – | – | – | – | – | – | aqueous pH test result [1, 10]: 6.1; aqueous pH test result ([1]; after contact with HCl gas flow): 2.8; Impurity (a) [7, 11]: 0.10% HPLC A %; Impurity (b) [7, 11]: 0.032% HPLC A %; Impurity (c) [7, 11]: 1.54% HPLC A %; Impurity (a) [7, 10]: not detected; Impurity (b) [7, 10]: not detected; Impurity (c) [7, 10]: not detected |
| CNCCC(Oc1ccccc1C)c1ccccc1 (stereo not shown) [Sample 8, Atomoxetine Hydrochloride] | 4.4 | not detected | not detected | not detected | not detected | not detected | not detected | – | – | – | – | – | – | – | – |
| CNCCC(Oc1ccccc1C)c1ccccc1 (stereo not shown) [Sample 6, Atomoxetine Hydrochloride] | – | – | – | – | – | – | – | – | – | – | – | – | – | – | pH (2% in H2O) [1]: 2.4 |
| CNCCC(Oc1ccccc1C)c1ccccc1 (single isomer, unassigned) [Sample 2, Atomoxetine Hydrochloride] | – | – | – | – | – | – | – | 5.8 | not detected | not detected | not detected | not detected | not detected | not detected | – |
